Measurements published in patent US20250228823A1, “PHARMACEUTICAL COMPOSITIONS COMPRISING (3-(1-(1H-IMIDAZOL-4-YL)ETHYL)-2-METHYLPHENYL)METHANOL” (Allergan, Inc., priority 2010, published 2025).

Assays:
bovine a1A receptor = molecular target: T1, bovine a1A receptor (Bos taurus, UniProt P18130); assay: cell-based; settings: for a1A efficacy: FLIPR agonist assay, HEK 293 cells, norepinephrine is the standard full agonist
T1 sequence (P18130 1-466): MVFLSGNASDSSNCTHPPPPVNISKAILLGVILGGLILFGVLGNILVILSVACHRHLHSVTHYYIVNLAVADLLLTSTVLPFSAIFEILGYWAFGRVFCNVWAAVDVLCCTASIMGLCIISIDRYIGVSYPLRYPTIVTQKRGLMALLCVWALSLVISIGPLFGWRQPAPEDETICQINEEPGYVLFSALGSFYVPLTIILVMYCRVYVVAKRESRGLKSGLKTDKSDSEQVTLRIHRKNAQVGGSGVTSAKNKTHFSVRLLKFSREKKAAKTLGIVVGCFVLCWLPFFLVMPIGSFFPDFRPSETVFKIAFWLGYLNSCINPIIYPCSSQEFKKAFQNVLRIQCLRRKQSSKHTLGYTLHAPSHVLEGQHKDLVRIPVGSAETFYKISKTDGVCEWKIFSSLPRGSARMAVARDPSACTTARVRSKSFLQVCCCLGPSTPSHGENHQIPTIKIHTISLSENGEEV
Experimental: (§1) HEK 293 cells stably expressing the bovine a1A receptor, human alpha 2A receptor and the chimeric G protein Gai5, are plated in poly-D-lysine coated 384-well plates at 20,000-40,000 cells per well and grown overnight in DMEM supplemented with 10% fetal bovine serum. For FLIPR (fluorometric image plate reader) evaluation, cells are washed twice with HBSS/HEPES Buffer (1× Hanks Buffered Salt Solution, 20 mM HEPES, pH 7.4) prior to the addition of Fluo-4-AM (4 uM Fluo-4-AM, 0.04% pluronic acid in HBSS/HEPES Buffer), a calcium-sensitive dye. Cells are loaded with dye for 40 minutes at 37° C., then washed 4 times with HBSS/HEPES Buffer. For both the agonist and antagonist assay, the test compounds are tested between 0.64 nM-10,000 nM. For an agonist assay, the reaction is initiated by the addition of the appropriate dilutions of compounds and the transient calcium signal captured. The peak height of the calcium curve is determined and utilized for calculation of EC50 and efficacy using ActivityBase. Norepinephrine is the standard full agonist used for evaluating alpha-1 and alpha-2 receptor activity.

human alpha 2A receptor = molecular target: T2, human alpha 2A receptor (Homo sapiens, UniProt P08913); settings: FLIPR agonist assay, HEK 293 cells with chimeric G protein; norepinephrine is the standard full agonist
T2 sequence (P08913 1-465): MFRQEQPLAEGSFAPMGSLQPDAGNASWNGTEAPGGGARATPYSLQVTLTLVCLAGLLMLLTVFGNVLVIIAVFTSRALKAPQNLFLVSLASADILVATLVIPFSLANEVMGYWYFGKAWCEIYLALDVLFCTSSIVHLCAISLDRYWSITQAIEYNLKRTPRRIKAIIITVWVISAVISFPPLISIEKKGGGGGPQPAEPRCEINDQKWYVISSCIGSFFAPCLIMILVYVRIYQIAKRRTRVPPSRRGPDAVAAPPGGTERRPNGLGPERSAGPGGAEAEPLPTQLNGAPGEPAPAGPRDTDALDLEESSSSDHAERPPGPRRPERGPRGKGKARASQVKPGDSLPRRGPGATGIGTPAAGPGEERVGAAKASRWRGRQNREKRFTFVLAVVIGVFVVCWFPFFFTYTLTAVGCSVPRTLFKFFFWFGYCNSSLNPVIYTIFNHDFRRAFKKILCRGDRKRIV
Experimental: as §1

[1] = tested on: Normotensive male Dutch-Belted rabbits (IOP); settings: for IOP effect in the contralateral eye: single topical drop onto right eye, untreated eye
Experimental: The experimental animals used, were Normotensive male Dutch-Belted rabbits (Myrtle's Rabbitry) over 6 months in age (n=4/compound/dose screened). A single drop (50 μl) of the drug formulation, was administered topically by pipette onto the right eye (treated eye) at approximately 0700 hours. IOP of the rabbits (treated and untreated eyes) was measured 0 hours before and at 0.5, 1, 2, 3, 4, 6 and 8 hours after topical eyedrop administration. IOP at the time of eyedrop administration (0 hours) was used as a baseline value. Prior to the tonometric measurements, 0.05% proparacaine (50 μl) was administered to each eye. Tonometric IOP measurements were obtained with a Mentor Pneumontonmeter. Additionally, all studies were masked. At least 1 week of wash-out time was allowed for each rabbit between dosings. All animals were examined for sedation, ocular irritation, and changes in pupil diameter throughout the course of the experiments.

Question: For `Brc1c(NC2=NCCN2)ccc2nccnc12` [Brimonidine, reference compound], which EC50 (bovine a1A receptor) is on record?
Answer: Its EC50 is 600 to 2400 nM.

Question: And the a1A efficacy (bovine a1A receptor)?
Answer: The a1A efficacy was 0.3.

Question: What about the a2A efficacy (human alpha 2A receptor) of the same compound?
Answer: Its a2A efficacy is 0.95.

Question: What about the “IOP effect at 6 hrs in the treated eye” value ([1]; 0.15%, single topical drop, DB Rabbits, 6 hrs) of the same compound?
Answer: The value was “minimal”.

Question: And the “IOP effect in the contralateral eye” value ([1]; DB Rabbits)?
Answer: The value was “strong contralateral effect”.

Question: Which results are given for `Cc1c(CO)cccc1[C@H](C)c1c[nH]cn1` [Compound 1, (S)-[3-(1-(1H-imidazol-4-yl)ethyl)-2-methylphenyl] methanol]?
Answer: EC50 (bovine a1A receptor): 340 to 2400 nM; a1A efficacy (bovine a1A receptor): 0.7; a2A efficacy (human alpha 2A receptor): 0.9; duration of IOP lowering in the treated eye ([1]; 0.15% concentration, single topical drop (50 μl), DB Rabbits): at least 6 hours; IOP lowering efficacy compared with brimonidine ([1]; FIG. 1): comparable efficacy to brimonidine; intraocular pressure duration compared with brimonidine ([1]; FIG. 1): longer intraocular pressure duration than brimonidine; IOP effect in the contralateral eye ([1]; DB Rabbits): very little effect
